Data from doi:10.1101/2023.03.24.534094v2 (biorxiv, 2023).
Read-outs that look alike come from different tables or passages of the source. Blank lines part the entries; values can stand above or below the compound they belong to.

Legend:
Test in all cases: biochemical
[1] = target: SRC (Homo sapiens, UniProt P12931)
[2] = target: MRCKa (Homo sapiens, UniProt Q5VT25)
[3] = target: CaMK1g (Homo sapiens, UniProt Q96NX5)
[4] = target: T1, CASK (Homo sapiens, UniProt O14936)
T1 sequence (O14936 1-926): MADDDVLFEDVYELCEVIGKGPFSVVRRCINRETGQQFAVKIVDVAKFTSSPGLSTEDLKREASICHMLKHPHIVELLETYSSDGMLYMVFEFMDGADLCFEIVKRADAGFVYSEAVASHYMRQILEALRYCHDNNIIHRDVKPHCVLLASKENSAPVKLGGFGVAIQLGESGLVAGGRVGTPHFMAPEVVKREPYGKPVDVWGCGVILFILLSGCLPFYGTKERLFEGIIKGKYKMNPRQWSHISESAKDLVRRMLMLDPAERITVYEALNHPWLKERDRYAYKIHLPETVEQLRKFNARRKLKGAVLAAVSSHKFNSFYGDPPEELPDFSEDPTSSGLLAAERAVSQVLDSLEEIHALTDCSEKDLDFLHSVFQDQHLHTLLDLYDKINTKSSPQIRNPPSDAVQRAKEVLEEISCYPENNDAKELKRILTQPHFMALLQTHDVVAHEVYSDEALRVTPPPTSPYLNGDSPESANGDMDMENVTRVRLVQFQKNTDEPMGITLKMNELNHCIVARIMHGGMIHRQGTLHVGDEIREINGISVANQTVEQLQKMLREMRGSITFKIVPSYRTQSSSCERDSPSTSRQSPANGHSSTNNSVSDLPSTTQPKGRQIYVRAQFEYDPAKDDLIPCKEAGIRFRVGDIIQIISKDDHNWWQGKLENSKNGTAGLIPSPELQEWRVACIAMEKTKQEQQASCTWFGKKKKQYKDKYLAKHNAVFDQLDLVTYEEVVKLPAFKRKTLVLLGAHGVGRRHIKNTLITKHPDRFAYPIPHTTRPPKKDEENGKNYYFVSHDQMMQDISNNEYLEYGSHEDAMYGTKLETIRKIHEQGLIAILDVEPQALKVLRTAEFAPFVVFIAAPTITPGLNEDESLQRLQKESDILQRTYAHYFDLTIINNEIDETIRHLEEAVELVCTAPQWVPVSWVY

[5] = target: T2, CaMK4 (Homo sapiens, UniProt Q16566)
T2 sequence (Q16566 1-473): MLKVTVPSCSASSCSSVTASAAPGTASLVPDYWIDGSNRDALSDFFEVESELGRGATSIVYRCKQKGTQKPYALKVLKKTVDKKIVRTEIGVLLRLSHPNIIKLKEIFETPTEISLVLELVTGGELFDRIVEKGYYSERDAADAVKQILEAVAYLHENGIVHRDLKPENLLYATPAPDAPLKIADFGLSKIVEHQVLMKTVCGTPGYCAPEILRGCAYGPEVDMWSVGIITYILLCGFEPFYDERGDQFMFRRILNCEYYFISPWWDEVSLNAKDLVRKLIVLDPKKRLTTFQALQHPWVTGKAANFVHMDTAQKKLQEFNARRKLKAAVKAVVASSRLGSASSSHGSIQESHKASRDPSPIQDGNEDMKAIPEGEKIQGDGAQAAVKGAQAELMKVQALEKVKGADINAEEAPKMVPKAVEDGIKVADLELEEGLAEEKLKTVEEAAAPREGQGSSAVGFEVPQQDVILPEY

[6] = target: MELK (Homo sapiens, UniProt Q14680)
Chain of MELK (Q14680 whole entry): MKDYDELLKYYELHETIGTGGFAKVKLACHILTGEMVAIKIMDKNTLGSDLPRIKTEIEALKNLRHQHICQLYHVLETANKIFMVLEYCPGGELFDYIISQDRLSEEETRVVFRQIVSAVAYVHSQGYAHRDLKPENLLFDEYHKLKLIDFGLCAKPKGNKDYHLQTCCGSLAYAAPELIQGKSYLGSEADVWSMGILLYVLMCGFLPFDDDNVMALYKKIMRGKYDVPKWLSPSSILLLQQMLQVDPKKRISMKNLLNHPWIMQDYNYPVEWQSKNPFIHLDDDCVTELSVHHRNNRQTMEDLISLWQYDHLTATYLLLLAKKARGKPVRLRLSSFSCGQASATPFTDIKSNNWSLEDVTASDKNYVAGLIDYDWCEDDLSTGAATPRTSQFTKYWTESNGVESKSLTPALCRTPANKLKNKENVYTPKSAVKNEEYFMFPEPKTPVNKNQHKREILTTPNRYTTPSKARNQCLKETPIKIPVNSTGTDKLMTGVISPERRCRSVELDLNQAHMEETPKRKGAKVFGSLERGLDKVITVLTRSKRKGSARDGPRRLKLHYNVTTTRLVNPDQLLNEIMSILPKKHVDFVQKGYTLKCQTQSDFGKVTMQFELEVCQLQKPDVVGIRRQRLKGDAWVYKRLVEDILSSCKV

Chain of SRC (P12931 whole entry): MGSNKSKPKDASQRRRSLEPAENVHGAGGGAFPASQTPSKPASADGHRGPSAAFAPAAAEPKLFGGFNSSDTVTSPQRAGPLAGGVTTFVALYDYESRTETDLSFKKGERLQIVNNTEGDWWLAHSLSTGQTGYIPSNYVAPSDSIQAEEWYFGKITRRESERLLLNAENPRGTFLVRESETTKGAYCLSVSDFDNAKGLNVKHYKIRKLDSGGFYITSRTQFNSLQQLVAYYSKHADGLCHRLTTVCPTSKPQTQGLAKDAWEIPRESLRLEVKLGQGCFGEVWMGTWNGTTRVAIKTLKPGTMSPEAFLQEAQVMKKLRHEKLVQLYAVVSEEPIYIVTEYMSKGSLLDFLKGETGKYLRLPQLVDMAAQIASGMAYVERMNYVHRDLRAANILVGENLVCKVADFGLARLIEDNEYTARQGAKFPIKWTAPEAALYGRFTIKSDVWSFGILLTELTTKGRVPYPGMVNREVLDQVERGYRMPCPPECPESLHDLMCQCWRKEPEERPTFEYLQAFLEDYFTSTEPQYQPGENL
Chain of CaMK1g (Q96NX5 whole entry): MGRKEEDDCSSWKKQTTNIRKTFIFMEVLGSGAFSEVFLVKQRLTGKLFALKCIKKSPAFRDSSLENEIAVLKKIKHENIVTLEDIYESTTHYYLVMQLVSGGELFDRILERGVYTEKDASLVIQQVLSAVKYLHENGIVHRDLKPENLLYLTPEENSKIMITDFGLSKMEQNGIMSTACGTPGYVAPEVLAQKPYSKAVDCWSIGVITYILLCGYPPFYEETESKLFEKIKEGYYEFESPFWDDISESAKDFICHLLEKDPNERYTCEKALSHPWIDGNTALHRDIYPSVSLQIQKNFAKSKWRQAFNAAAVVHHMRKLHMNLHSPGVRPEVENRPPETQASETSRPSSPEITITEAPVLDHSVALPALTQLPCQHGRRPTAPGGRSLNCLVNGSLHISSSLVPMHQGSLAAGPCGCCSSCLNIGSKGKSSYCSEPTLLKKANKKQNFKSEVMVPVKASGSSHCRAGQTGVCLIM
Chain of MRCKa (Q5VT25 whole entry): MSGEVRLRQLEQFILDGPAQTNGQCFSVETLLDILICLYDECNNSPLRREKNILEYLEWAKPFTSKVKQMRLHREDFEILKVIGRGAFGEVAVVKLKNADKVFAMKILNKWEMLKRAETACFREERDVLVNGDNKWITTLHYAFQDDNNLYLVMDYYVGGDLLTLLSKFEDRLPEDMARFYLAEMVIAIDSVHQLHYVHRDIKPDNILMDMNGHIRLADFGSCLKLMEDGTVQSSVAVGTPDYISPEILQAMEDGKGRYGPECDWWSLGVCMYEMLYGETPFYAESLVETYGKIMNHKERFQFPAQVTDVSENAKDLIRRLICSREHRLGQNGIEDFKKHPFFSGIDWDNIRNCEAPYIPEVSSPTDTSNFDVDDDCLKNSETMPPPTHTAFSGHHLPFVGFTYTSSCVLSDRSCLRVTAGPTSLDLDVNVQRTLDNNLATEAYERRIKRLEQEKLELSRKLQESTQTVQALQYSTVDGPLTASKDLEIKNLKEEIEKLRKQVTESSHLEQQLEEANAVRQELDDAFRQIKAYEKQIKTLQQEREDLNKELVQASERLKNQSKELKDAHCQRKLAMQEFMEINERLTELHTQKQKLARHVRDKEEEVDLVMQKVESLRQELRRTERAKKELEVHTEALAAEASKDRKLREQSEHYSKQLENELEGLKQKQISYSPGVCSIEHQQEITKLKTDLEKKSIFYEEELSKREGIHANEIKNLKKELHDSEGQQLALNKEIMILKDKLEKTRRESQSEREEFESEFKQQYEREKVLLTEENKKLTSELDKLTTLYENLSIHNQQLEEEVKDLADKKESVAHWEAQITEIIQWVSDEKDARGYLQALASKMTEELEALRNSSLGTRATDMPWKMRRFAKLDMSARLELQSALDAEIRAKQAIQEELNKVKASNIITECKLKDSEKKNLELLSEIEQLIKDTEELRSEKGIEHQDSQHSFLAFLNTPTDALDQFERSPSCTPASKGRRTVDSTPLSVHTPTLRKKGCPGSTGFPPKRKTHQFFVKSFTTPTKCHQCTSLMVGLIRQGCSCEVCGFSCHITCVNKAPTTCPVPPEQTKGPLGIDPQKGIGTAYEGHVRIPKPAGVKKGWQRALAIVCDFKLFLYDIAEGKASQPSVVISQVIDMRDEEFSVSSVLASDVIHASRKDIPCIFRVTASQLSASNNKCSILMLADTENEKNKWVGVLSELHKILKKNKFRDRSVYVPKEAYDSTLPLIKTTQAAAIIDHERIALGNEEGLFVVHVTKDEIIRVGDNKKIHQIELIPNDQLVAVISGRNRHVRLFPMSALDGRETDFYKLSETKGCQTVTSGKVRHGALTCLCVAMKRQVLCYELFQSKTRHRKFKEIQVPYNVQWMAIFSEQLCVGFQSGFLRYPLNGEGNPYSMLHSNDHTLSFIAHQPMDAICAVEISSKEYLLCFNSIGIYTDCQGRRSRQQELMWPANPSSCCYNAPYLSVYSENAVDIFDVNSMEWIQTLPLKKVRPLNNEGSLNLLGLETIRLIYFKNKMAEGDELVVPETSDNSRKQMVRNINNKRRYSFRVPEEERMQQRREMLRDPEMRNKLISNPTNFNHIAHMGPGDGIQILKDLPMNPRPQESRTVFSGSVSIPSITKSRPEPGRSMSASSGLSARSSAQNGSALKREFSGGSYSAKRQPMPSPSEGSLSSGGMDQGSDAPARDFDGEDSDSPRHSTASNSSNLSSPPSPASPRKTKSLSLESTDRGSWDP

SMILES: CNc1ncc2cc(-c3cc(Br)ccc3Cl)c(=O)n(C[C@H]3OC[C@H](N)CO3)c2n1 [compound 7, 8-(((2r,5r)-5-Amino-1,3-dioxan-2-yl)methyl)-6-(5-bromo-2-chlorophenyl)-2-(methylamino)pyrido[2,3-d]pyrimidin-7(8H)-one]
ΔTm at 10 µM ([1]; read-out: dTm 7): 0.1 °C
ΔTm at 10 µM ([2]; read-out: dTm 7): 0.1 °C
ΔTm at 10 µM ([3]; read-out: dTm 7): 0.3 °C
ΔTm at 10 µM ([4]; read-out: dTm 7): -0.1 °C
ΔTm at 10 µM ([6]; read-out: dTm 7): 3.6 °C
ΔTm at 10 µM ([5]; read-out: dTm 7): 0.1 °C

SMILES: CNc1ncc2cc(-c3cc(F)ccc3F)c(=O)n(CCCCN)c2n1 [compound 5, 8-(4-Aminobutyl)-6-(2,5-difluorophenyl)-2-(methylamino)pyrido[2,3-d]pyrimidin-7(8H)-one]
ΔTm at 10 µM ([1]; read-out: dTm MR22 (5)): 0.7 °C
ΔTm at 10 µM ([2]; read-out: dTm MR22 (5)): -0.5 °C
ΔTm at 10 µM ([3]; read-out: dTm MR22 (5)): -0.4 °C
ΔTm at 10 µM ([4]; read-out: dTm MR22 (5)): -0.4 °C
ΔTm at 10 µM ([6]; read-out: dTm MR22 (5)): 3.2 °C
ΔTm at 10 µM ([5]; read-out: dTm MR22 (5)): -0.6 °C

SMILES: CNc1ncc2cc(-c3ccc(-c4cccc(C)n4)cc3Cl)c(=O)n(CC3OCC(N)CO3)c2n1 (centres unmarked) [compound 2, G-5555]
dTm G-5555 (2) ([1]; 10 µM, binder): -0.2 °C
dTm G-5555 (2) ([2]; 10 µM, binder): 0.9 °C
dTm G-5555 (2) ([3]; 10 µM, binder): 2.3 °C
dTm G-5555 (2) ([4]; 10 µM, binder): -0.8 °C
dTm G-5555 (2) ([6]; 10 µM, binder): 8.4 °C
dTm G-5555 (2) ([5]; 10 µM, binder): 0.7 °C

Now from value to compound:

ΔTm at 10 µM ([1]; read-out: dTm 6): 0.2 °C
ΔTm at 10 µM ([2]; read-out: dTm 6): 0.5 °C
ΔTm at 10 µM ([3]; read-out: dTm 6): 1.2 °C
ΔTm at 10 µM ([4]; read-out: dTm 6): -0.3 °C
ΔTm at 10 µM ([5]; read-out: dTm 6): -0.1 °C
SMILES: CNc1ncc2cc(-c3cc(Br)ccc3Cl)c(=O)n(CCCCN)c2n1 [compound 6, 8-(4-Aminobutyl)-6-(5-bromo-2-chlorophenyl)-2-(methylamino)pyrido[2,3-d]pyrimidin-7(8H)-one]

ΔTm at 10 µM ([1]; read-out: dTm MR21 (4)): 2.6 °C
ΔTm at 10 µM ([2]; read-out: dTm MR21 (4)): 0.2 °C
ΔTm at 10 µM ([3]; read-out: dTm MR21 (4)): -0.1 °C
ΔTm at 10 µM ([4]; read-out: dTm MR21 (4)): 0 °C
ΔTm at 10 µM ([6]; read-out: dTm MR21 (4)): 5.7 °C
ΔTm at 10 µM ([5]; read-out: dTm MR21 (4)): 0.8 °C
SMILES: CNc1ncc2cc(-c3ccccc3Cl)c(=O)n(CCCCN)c2n1 [compound 4, 8-(4-Aminobutyl)-6-(2-chlorophenyl)-2-(methylamino)pyrido[2,3-d]pyrimidin-7(8H)-one]
